One may read the inhibition as the percentage by which the read-out fell short of the control. What is called melting point is the temperature, or range, at which the solid turns liquid.

The values that follow come from patent US9512120B2, “Microbicidally active imidazopyridine derivatives” (Syngenta Participations AG, priority 2013, dated 2016).

SMILES strings stand for the structures.

Data set [1] relates to Thanatephorus cucumeris (Rhizoctonia solani). Description: Thanatephorus cucumeris (Rhizoctonia solani) / liquid culture (foot rot, damping-off). It is filed as cell-based. As to conditions: PDB, 24° C., 3-4 days after application, read-out: control of Thanatephorus cucumeris (inhibition of growth, photometric). Summed up: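 Mycelial fragments in potato dextrose broth exposed to test compounds at 200 ppm (from DMSO solution), incubated at 24° C. Growth inhibition read photometrically 3-4 days after application.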

Data set [2] deals with Botryotinia fuckeliana (Botrytis cinerea). Description: Botryotinia fuckeliana (Botrytis cinerea) / liquid culture (gray mould). It is filed as cell-based. As to conditions: Vogels broth, 24° C., 3-4 days after application, read-out: control of Botryotinia fuckeliana (inhibition of growth, photometric). The method in brief:
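Botrytis cinerea conidia in Vogels broth were added to test compound applied from DMSO at 200 ppm. Incubation at 24 °C; growth inhibition read photometrically 3-4 days after application.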

In data set [3] the test system is Sclerotinia sclerotiorum. Description: Sclerotinia sclerotiorum liquid culture (cottony rot / white mold). Conditions: PDB, 24° C., 3-4 days after application, read-out: control of Sclerotinia sclerotiorum (inhibition of growth, photometric). It is filed as cell-based. Summed up: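 Mycelia fragments of Sclerotinia sclerotiorum in potato dextrose broth were added to compound in DMSO. Cultures incubated at 24° C; growth inhibition determined photometrically 3-4 days after application.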

Data set [4] deals with Phaeosphaeria nodorum (Septoria nodorum). Description: Phaeosphaeria nodorum (Septoria nodorum) / wheat / leaf disc preventative (glume blotch). It is filed as in vivo. Conditions: Parastagonospora nodorum, foliar, wheat leaf segments cv Kanzler, inoculated 2 days after application, assessed 5-7 days after application, read-out: control of Phaeosphaeria nodorum (percent disease control compared to untreated). The method in brief:
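Wheat leaf segments (cv Kanzler) on agar sprayed with compound at 200 ppm, inoculated with spores 2 days later. Incubated at 20° C., 75% relative humidity, 12/12 h light/dark; percent disease control versus untreated scored 5-7 days after application.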

For data set [5], the system named is Monographella nivalis (Microdochium nivale). Description: Monographella nivalis (Microdochium nivale) / liquid culture (foot rot cereals). It is filed as cell-based. Conditions: PDB, 24° C., 4-5 days after application, read-out: control of Monographella nivalis (inhibition of growth, photometric). The method in brief: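 Cryostored conidia in potato dextrose broth were added to test compound dispensed from DMSO at 200 ppm. Plates were kept at 24° C, and growth inhibition was read photometrically 4-5 days after application.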

The test system of data set [6] is Fusarium culmorum. Description: microbe, parasite or virus in culture. Format: cell-based. Conditions: read-out: control of Fusarium culmorum (inhibition of growth, photometric).
The test system of data set [7] is Puccinia recondita f. sp. Tritici. Description: Puccinia recondita f. sp. tritici / wheat / leaf disc preventative (brown rust). Conditions: foliar, wheat leaf segments cv Kanzler, inoculated 1 day after application, assessed 7-9 days after application, read-out: control of Puccinia recondita f. sp. Tritici (percent disease control compared to untreated). It is filed as in vivo. Summed up:
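Leaf segments of wheat cv Kanzler on agar were sprayed with formulated compound at 200 ppm and inoculated with spores 1 day later. Incubation was at 19° C, 75% relative humidity and 12/12 h light/dark. Activity was scored 7-9 days after application as percent disease control versus untreated.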

The test system of data set [8] is Glomerella lagenarium (Colletotrichum lagenarium). Description: Glomerella lagenarium (Colletotrichum lagenarium) / liquid culture (anthracnose). It is filed as cell-based. Conditions: Colletotrichum orbiculare, PDB, 24° C., 3-4 days after application, read-out: control of Glomerella lagenarium (inhibition of growth, photometric). Summed up:
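Cryopreserved conidia suspended in potato dextrose broth were added to compound in DMSO applied at 200 ppm. Plates incubated at 24° C; growth inhibition read photometrically 3-4 days after application.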

The subject of data set [9] is Mycosphaerella graminicola (Septoria tritici). Description: Mycosphaerella graminicola (Septoria tritici) / liquid culture (Septoria blotch). Conditions: Zymoseptoria tritici, PDB, 24° C., 4-5 days after application, read-out: control of Mycosphaerella graminicola (inhibition of growth, photometric). Format: cell-based. Summed up:
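Cryo-stored conidia in potato dextrose broth were added to compound in DMSO at 200 ppm in microtiter plates. Plates were incubated at 24 °C and growth inhibition was measured photometrically 4–5 days after application.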

Data set [10] has as its system Gaeumannomyces graminis. Description: Gaeumannomyces graminis / liquid culture (take-all of cereals). Format: cell-based. As to conditions: PDB, 24° C., 4-5 days after application, read-out: control of Gaeumannomyces graminis (inhibition of growth, photometric). The method in brief: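 Mycelial fragments in potato dextrose broth were exposed to compound from DMSO at 200 ppm in microtiter plates. Incubation at 24 °C; growth inhibition read photometrically 4-5 days after application.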

Data set [11] concerns Pyrenophora teres. Description: Pyrenophora teres / barley / leaf disc preventative (net blotch). It is filed as in vivo. Conditions: foliar, barley leaf segments cv Hasso, inoculated two days after application, assessed 5-7 days after application, read-out: control of Pyrenophora teres (disease control compared to untreated). Summed up: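 Barley cv Hasso leaf segments on agar sprayed with compound at 200 ppm, inoculated with spores two days later. Kept at 20 °C, 65% RH, 12/12 h light; disease control versus untreated scored 5-7 days after application.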

For data set [12], the system named is Plasmopara viticola. Description: Plasmopara viticola / grape / leaf disc preventative. Format: in vivo. As to conditions: foliar, grape vine leaf disks, inoculated 1 day after application, assessed 6-8 days after application, read-out: control of Plasmopara viticola (percent disease control compared to untreated).
Data set [13] deals with Pythium ultimum. Description: Pythium ultimum / liquid culture (seedling damping off). It is filed as cell-based. As to conditions: Globisporangium ultimum, potato dextrose broth, 24° C., 2-3 days after application, read-out: control of Pythium ultimum (inhibition of growth, photometric). The procedure: Pythium ultimum/Liquid Culture (Seedling Damping Off) Mycelia fragments and oospores of a newly grown liquid culture of the fungus were directly mixed into nutrient broth (potato dextrose broth). After placing a DMSO solution of test compound into a 96-well format microtiter plate at an application rate of 200 ppm, the nutrient broth containing the fungal mycelia/spore mixture was added. The test plates were incubated at 24° C. and the inhibition of growth was determined photometrically 2-3 days after application.

Data set [14] concerns Blumeria graminis f. Sp. Tritici (Erysiphe graminis f. Sp. Tritici). Description: Blumeria graminis f. sp. tritici / wheat / leaf disc preventative (powdery mildew on wheat). As to conditions: foliar, wheat leaf segments cv. Kanzler, inoculated 1 day after application, assessed 6-8 days after application, read-out: control of Blumeria graminis (percent disease control compared to untreated). Format: in vivo. Summed up: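 Wheat leaf segments (cv. Kanzler) on agar sprayed with formulated compound at 200 ppm, inoculated with powdery mildew 1 day later. Held at 20 °C, 60% RH, 24 h dark then 12 h/12 h light; percent disease control versus untreated scored 6-8 days after application.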

The subject of data set [15] is Mycosphaerella arachidis (Cercospora arachidicola). Description: Mycosphaerella arachidis (Cercospora arachidicola) / liquid culture (early leaf spot). Format: cell-based. Conditions: PDB, 24° C., 4-5 days after application, read-out: control of Mycosphaerella arachidis (inhibition of growth, photometric). Summed up: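 Conidia suspended in potato dextrose broth and added to test compound from DMSO solution at 200 ppm. Incubated at 24 °C; growth inhibition read photometrically 4-5 days after application.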

As for `CCn1c(-n2ncnc2N)nc2cncc(-c3ccc(Cl)c(Cl)c3F)c21` [Compound 100, 2-[7-(3,4-dichloro-2-fluorophenyl)-1-ethylimidazo[4,5-c]pyridin-2-yl]-1,2,4-triazol-3-amine], the inhibition at 20 ppm in data set [1], in [2], in data set [3], in data set [5], in data set [6] and in data set [8] was not below 80% in each case. The inhibition at 20 ppm in data set [9] and in data set [10] was not below 80% throughout. For the same compound, the pest or weed control at 200 ppm in data set [4], in data set [7] and in data set [11] was not below 80% each time.

Take `CCn1c(-n2ncnc2N)nc2cncc(-c3ccccc3)c21` [Compound 19, 2-(1-ethyl-7-phenylimidazo[4,5-c]pyridin-2-yl)-1,2,4-triazol-3-amine]: the melting point lay in the range of 247 to 251 °C. For the same compound, in data set [1], the inhibition at 20 ppm was not below 80%. In addition, in data set [2], the inhibition at 20 ppm was not below 80%. For the same compound, the pest or weed control at 200 ppm in [12] is not below 80%. For the same compound, in data set [4], the pest or weed control at 200 ppm was not below 80%. Further, the inhibition at 20 ppm in data set [5] was not below 80%. In data set [7], the pest or weed control at 200 ppm was not below 80%. Moreover, the inhibition at 20 ppm in data set [8] was not below 80%. For the same compound, the inhibition at 20 ppm in data set [9] was not below 80%. The inhibition at 20 ppm in [10] is not below 80%. In addition, the pest or weed control at 200 ppm in data set [11] was not below 80%. For the same compound, the inhibition at 20 ppm in [13] was not below 80%.

Regarding `CCn1c(-n2ncnc2N)nc2cncc(-c3ccc(OC)nc3)c21` [Compound 59, 2-[1-ethyl-7-(6-methoxypyridin-3-yl)imidazo[4,5-c]pyridin-2-yl]-1,2,4-triazol-3-amine], the inhibition at 20 ppm in data set [1], in data set [2], in data set [8], in data set [9], in data set [10] and in [13] was not below 80% in each case. Besides, the pest or weed control at 200 ppm in data set [4], in [7], in data set [14] and in data set [11] was not below 80% throughout.

For the compound `CCCCCCO/N=C(/C)c1cncc2nc(-n3ncnc3N)n(CC)c12` [Compound 147], the inhibition at 20 ppm in data set [15], in data set [1], in [2], in [3], in data set [5] and in data set [6] was not below 80% throughout. Moreover, the inhibition at 20 ppm in data set [8] and in data set [9] was not below 80% each time. The pest or weed control at 200 ppm in [4], in [7] and in [11] was not below 80% in each case.

In turn, `CCCCc1nc(N)n(-c2nc3cnccc3n2C2CCCCC2)n1` [Compound 6, 5-butyl-2-(1-cyclohexylimidazo[4,5-c]pyridin-2-yl)-1,2,4-triazol-3-amine] registered a melting point of 163 to 165 °C. Moreover, the inhibition at 20 ppm in data set [8] is not below 80%. Also, the inhibition at 20 ppm in data set [13] was not below 80%.

As to `CCCn1c(-n2ncnc2N)nc2cncc(-c3ccccc3Cl)c21` [Compound 172, 2-[7-(2-chlorophenyl)-1-propyl-imidazo[4,5-c]pyridin-2-yl]-1,2,4-triazol-3-amine], the inhibition at 20 ppm in data set [1], in data set [2], in data set [3], in data set [5], in data set [8] and in [9] was not below 80% throughout. Besides, the inhibition at 20 ppm in [10] and in data set [13] was not below 80% throughout. Besides, the pest or weed control at 200 ppm in data set [12], in [4], in data set [7] and in data set [11] was not below 80% each time.

As for `CCn1c(-n2ncnc2N)nc2cncc(-c3ccccc3C#N)c21` [Compound 85, 2-[2-(5-amino-1,2,4-triazol-1-yl)-1-ethylimidazo[4,5-c]pyridin-7-yl]benzonitrile], the inhibition at 20 ppm in data set [1], in data set [2], in data set [8], in data set [9], in data set [10] and in [13] was not below 80% throughout. Moreover, the pest or weed control at 200 ppm in [7], in data set [14] and in [11] was not below 80% each time.

As for `CCn1c(-n2ncnc2N)nc2cncc(-c3cc(Cl)ccc3Cl)c21` [Compound 88, 2-[7-(2,5-dichlorophenyl)-1-ethylimidazo[4,5-c]pyridin-2-yl]-1,2,4-triazol-3-amine], the inhibition at 20 ppm in data set [1], in data set [2], in [3], in data set [5], in data set [6] and in data set [8] was not below 80% in each case. Moreover, the inhibition at 20 ppm in data set [9] and in [10] was not below 80% in each case. In addition, the pest or weed control at 200 ppm in data set [4], in data set [7] and in data set [11] was not below 80% throughout.

Regarding `CCn1c(-n2ncnc2N)nc2cncc(C)c21` [Compound 22, 2-(1-ethyl-7-methylimidazo[4,5-c]pyridin-2-yl)-1,2,4-triazol-3-amine], the melting point fell in the range of 194 to 198 °C. Besides, the inhibition at 20 ppm in data set [15] was not below 80%. In addition, the inhibition at 20 ppm in [1] is not below 80%. The inhibition at 20 ppm in data set [2] was not below 80%. In addition, in [3], the inhibition at 20 ppm is not below 80%. In data set [4], the pest or weed control at 200 ppm was not below 80%. The inhibition at 20 ppm in [5] was not below 80%. Besides, the pest or weed control at 200 ppm in [7] is not below 80%. Also, the inhibition at 20 ppm in data set [8] was not below 80%. Besides, the inhibition at 20 ppm in data set [9] was not below 80%. Also, in data set [10], the inhibition at 20 ppm was not below 80%. Also, in data set [11], the pest or weed control at 200 ppm is not below 80%. For the same compound, the inhibition at 20 ppm in data set [13] is not below 80%.
